Data on five molecules can be found in article PMC8386730, “Pyrrolidine-based 3-deoxysphingosylphosphorylcholine analogs as possible candidates against neglected tropical diseases (NTDs): identification of hit compounds towards development of potential treatment of Leishmania donovani” (Journal of Enzyme Inhibition and Medicinal Chemistry, 2021).

The subject of data set [1] is L. donovani promastigotes. As to the kind of experiment: Growth inhibition of L. donovani promastigotes (resazurin-based assay). In kind it is cell-based, Leishmania donovani. Details: Inhibition at both 50 and 25 µM concentrations: unit: %. The settings on record: for inhibition at 25 µM / inhibition at 50 µM / IC50: Leishmania donovani, 72 h, incubation 3 days; for inhibition at 25 µM / inhibition at 50 µM: relative to control; for inhibition at 25 µM: read-out: % Inhibition at 25 µM concentration; for inhibition at 50 µM: read-out: % Inhibition at 50 µM concentration; for IC50: extracellular promastigotes, duplicates, read-out: IC50 ± SD, growth of L. donovani promastigotes. The protocol:
Out of 20 known Leishmania species pathogenic to humans, L. donovani, which causes visceral leishmaniasis, is the most fatal. Consequently, an in vitro model of L. donovani promastigotes[26] was selected to evaluate the activity of the synthesised pyrrolidine-based 3-deoxysphingosylphosphorylcholine analogs 1e–i, 2a–f, 3a–f at two concentration (50 and 25 µM) employing miltefosine and erufosine (ErPC; erucylphosphocholine) as reference standards using a resazurin-based assay.
For comparison, erufosine and miltefosine were used as reference standards.
L. donovani MHOM/SD/62/1S-CL2D parasites were cultured as promastigotes at 28 °C in M199 medium (Sigma-Aldrich, St. Louis, MO, USA) with 40 mM HEPES, 0.1 mM adenine, 0.0001% biotin, and 4.62 mM NaHCO3 supplemented with 10% foetal bovine serum (FBS, Gibco, Carlsbad, CA, USA), […] penicillin (Gibco), and 100 µg/mL streptomycin (Gibco). Parasites were sub-cultured every 3 or 4 days and maintained for 10 passages.
The plates were analysed using a Victor3TM plate reader (PerkinElmer, Inc., Waltham, MA, USA) at 590 nm (emission) and 530 nm (excitation). Miltefosine and erufosine were used as the reference standards. All measured and calculated values are the averages of duplicates. The dose-response curves were generated by GraphPad Prism 6 software using a sigmoidal dose-response equation with a variable hill slope option.

The test system of data set [2] is intracellular L. donovani amastigotes. As to the kind of experiment: Intracellular L. donovani amastigotes in infected THP-1 cells (image-based). The class given is cell-based. Conditions: Leishmania donovani, 72 h, duplicates, read-out: Intracellular L. donovani IC50 ± SD. The source says: (§1) As the extracellular promastigotes form represents the insect stage of the parasite, assessment of activity is needed to confirm activity against the intracellular amastigotes form, which is the human host form (mammalian host form). In addition, a preliminary assessment of selectivity and safety might be desirable to evaluate the quality of hit compounds. Accordingly, compound 1e and its enantiomer; 1a, in parallel with standard drugs miltefosine and erufosine were submitted for evaluation in intracellular amastigotes model using infected THP-1 cells; human monocytic cell line derived from an acute monocytic leukaemia. In addition, cytotoxicity of tested compounds and standards were evaluated against THP-1 cells and normal human embryonic kidney cells; HEK293T to evaluate selectivity and safety. PMA-treated THP-1 human monocytic cells were seeded at 0.8 × 10^4 cells per well in a 384-well culture plate (Greiner Bio-One, Kremsmünster, Austria) in RPMI-1640 complete medium supplemented with 10% FBS. After 48 h of incubation at 37 °C in the presence of 5% CO2, infected THP-1 cells were treated with miltefosine (at 80 µM, positive control), and tested compounds (at 200 µM). The negative control consisted of THP-1 infected with the parasite with only 0.5% DMSO. After 72 h, the cells that were infected and treated with the drug were washed with serum-free RPMI-1640 medium. The cells and parasites were stained using 5 µM DAPI and 4% PFA. The images were acquired based on reading using an Operetta® automated microscope (PerkinElmer, Inc., Waltham, MA 02451, USA). They were further analysed using Columbus^TM (PerkinElmer, Inc. Waltham, MA, USA) software to quantify parasite numbers, and host cell numbers. In brief, large-sized nucleus of host cells was first detected using DAPI signal and the host cell boundary masking was performed using the low-intensity signals from cytosols. Then the small-sized nucleus signal by DAPI was used to identify parasites within the area of the masked host cell. The DRC results were further assessed in a dose-dilution manner (two-fold serial dilution for 10 points starting from 200 µM).

A further data set deals with THP-1 cells. Nature of the data set: Cytotoxicity against THP-1 host cells. The class given is cell-based, human. Conditions: CC50 THP-1 divided by IC50 intracellular L. donovani.
Source text: as §1

Data set [3] in a line: Cytotoxicity against THP-1 host cells. The class given is cell-based, human. The settings on record: human, PMA-treated THP-1 monocytic cells infected with the parasite; THP-1 cells, duplicates; read-out: THP-1 cell CC50 ± SD.
Source text: as §1

Data set [4] relates to L. donovani promastigotes. Details: method as in PMID 22506086. Conditions: literature value; read-out: Reported IC50 against L. donovani promastigotes; cited from earlier work.
A short description of data set [5]: Cytotoxicity against HEK293T cells (resazurin). The class given is cell-based. Conditions: human, duplicates, read-out: HEK293T CC50 ± SD. The source says: As the extracellular promastigotes form represents the insect stage of the parasite, assessment of activity is needed to confirm activity against the intracellular amastigotes form, which is the human host form (mammalian host form). In addition, a preliminary assessment of selectivity and safety might be desirable to evaluate the quality of hit compounds. Accordingly, compound 1e and its enantiomer; 1a, in parallel with standard drugs miltefosine and erufosine were submitted for evaluation in intracellular amastigotes model using infected THP-1 cells; human monocytic cell line derived from an acute monocytic leukaemia. In addition, cytotoxicity of tested compounds and standards were evaluated against THP-1 cells and normal human embryonic kidney cells; HEK293T to evaluate selectivity and safety. Cytotoxicity against HEK293T cell growth was assayed by measuring the conversion of resazurin to resorufin. The assays were performed in 384-well plates that were seeded with HEK293T cells (1000 cells per well). After seeding, the cells were exposed to the compounds for 3 days. Resazurin sodium salt (200 µM; R7017; Sigma-Aldrich, St. Louis, MO, USA) was then added, and the samples were incubated for 5 h. After incubation, the […] were fixed using 4% paraformaldehyde, and the plates were analysed using a Victor3TM plate reader (PerkinElmer, Inc., Waltham, MA, USA) at 590 nm (emission) and 530 nm (excitation). Miltefosine and saponin were used as the reference drugs for the HEK293T growth inhibition.

A further data set concerns L. major promastigotes. Details: method as in PMID 21267500. The settings on record: cited from earlier work.

Read-outs that look alike come from different tables or passages of the source.

On to `CCCCCCCC/C=C\CCCCCCCCCCCCOP(=O)([O-])OCC[N+](C)(C)C` [Erufosine, erucylphosphocholine, reference compound], for which, in data set [1], the inhibition at 25 µM came out at 106%, the inhibition at 50 µM is 108% and the IC50 was found to be 9.75 ± 2.41 µM. In data set [2], the IC50 worked out at 3.61 ± 1.05 µM. The molecule further displayed a Selectivity index with THP-1 cells of 1.1. Moreover, the CC50 at 72 h in data set [3] was 3.94 ± 1.02 µM. In addition, the IC50 in data set [4] is 13.3 µM. Besides, in data set [5], the CC50 at 3 days worked out at 40.8 ± 3.36 µM.

In the case of `CCCCCCCCCCCCC/C=C/C[C@@H](N)CO` [Compound 26an], the “Cytotoxicity against L. major promastigotes (in words)” value with L. major promastigotes is “significant cytotoxicity”.

As to `CCCCCCCCCCCCCCCC(=O)N1CCC[C@H]1COP(=O)([O-])OCC[N+](C)(C)C` [Compound 1e], in data set [1], the inhibition at 25 µM was 107%, the inhibition at 50 µM was 107% and the IC50 worked out at 28.3 ± 1.38 µM. Further, the “Activity at both 50 and 25 µM concentrations (in words)” value in data set [1] (both 50 and 25 µM) is reported as “highly active”. In addition, in data set [2], the concentration for half-maximal inhibition (IC50) was 14.3 ± 2.03 µM. In the data set on THP-1 cells, the Selectivity index stood at 1.1. Further, the CC50 at 72 h in data set [3] turned out to be 15.8 ± 3.23 µM. Further, the CC50 at 3 days in data set [5] worked out at 45.1 ± 5.01 µM.

Consider `CCCCCCCCCCCCCCCCOP(=O)([O-])OCC[N+](C)(C)C` [Miltefosine, miltefosine, reference compound], for which, in data set [1], the inhibition at 25 µM was found to be 100%, the inhibition at 50 µM came to 100% and the IC50 was determined as 4.94 ± 0.47 µM. Also, the IC50 in data set [2] is 2.55 ± 0.63 µM. In the data set on THP-1 cells, this molecule had a Selectivity index of 16.0. In data set [3], the CC50 at 72 h stood at 40.8 ± 3.32 µM. Further, the IC50 in data set [4] is 3.1 µM. Moreover, the CC50 at 3 days in data set [5] is above 200 µM.

On to `CCCCCCCCCCCCCCCC(=O)N1CCC[C@@H]1COP(=O)([O-])OCC[N+](C)(C)C` [Compound 1a], for which, in data set [1], the inhibition at 25 µM was found to be 107%, the inhibition at 50 µM was determined as 108% and the IC50 stood at 52.6 ± 1.44 µM. Also, in data set [1] (both 50 and 25 µM), the “Inhibition at both 50 and 25 µM concentrations” value is recorded as at least 100. Besides, the IC50 in data set [2] amounted to 11.3 ± 1.81 µM. The Selectivity index in the data set on THP-1 cells is recorded as 2.2. Moreover, the half-maximal cytotoxic concentration (CC50) at 72 h in data set [3] came to 25.3 ± 3.56 µM. Also, the CC50 at 3 days in data set [5] worked out at 30.6 ± 2.31 µM.
